These are literature values, as cited in patent publication US12448600B2, “Extraction of antimethanogenic compounds” (priority 2023, dated 2025).

Molecules are shown by their SMILES. Read-outs that look alike come from different tables or passages of the source. Bounds are passed on as bounds.

For data set [1] the following is noted: pure form.
Where [2] appears, read: 20° C., cell prints mmHg under a kPa head.

As for `CBr` [Methyl bromide], the Vapor pressure in data set [1] (setting [2]) was 1893 mmHg.

Regarding `BrCBr` [Dibromomethane], the Vapor pressure in data set [1] (20° C.) is given as 4.7 kPa.

For `FC(F)F` [Fluoroform], the Vapor pressure in data set [1] (20° C.) is recorded as 4000 kPa.

Turning to `IC(I)I` [Iodoform], the Vapor pressure in data set [1] (setting [2]) is listed as 0.04 mmHg.

Turning to `ClC(Cl)Cl` [Chloroform], the Vapor pressure in data set [1] (setting [2]) is 212 mmHg.

Turning to `ClC=C(Cl)Cl` [Trichlorethylene], the Vapor pressure in data set [1] (20° C.) is given as 7.8 kPa.

Turning to `O=[N+]([O-])OCCCO` [3-NOP, 3-nitrooxypropanol], the “Reduction in CH4 production” value in the data set on CH4 production (cows, twice daily dosing, 80 mg per kg dry matter intake, 3 hours post-administration) is on record as 29%. In addition, in the data set on CH4 production (single dose), the “Reduction in methane emissions” value is on record as less than 30% and the “Time the reduction in methane emissions is maintained” value is 3 to 4 h.

As for `BrC(Br)Br` [Bromoform], the Vapor pressure in data set [1] (20° C.) was 0.67 kPa.

For `ClC(Cl)Br` [Bromodichloromethane], in data set [1] (20° C.), the Vapor pressure is recorded as 6.6 kPa.

As for `CI` [Methyl iodide], the Vapor pressure in data set [1] (20° C.) is on record as 50 kPa.

In the case of `CF` [Methyl fluoride], in data set [1] (at 21° C.), the Vapor pressure was 3300 at 21 °C kPa.
